Test results: paper PMC2843921 (ACS chemical neuroscience, 2010)
Where a name gives a salt, the structure may show the parent alone. Non-standard residues stand in square brackets, D forms with d. Residues, ends and D or L forms follow the SMILES beside them. *: point of attachment. Dmt = Cc1cc(O)cc(C)c1C[C@H](N)C(=O)O; dTic = O=C(O)[C@H]1Cc2ccccc2CN1; NHBn = c1ccc(CN*)cc1

Columns and labels:
[1] = target: T1, human μ opioid receptor (Homo sapiens, UniProt P35372); assay: Stimulation of [35S]GTPγS binding, μ; type: biochemical; details: for Emax: read-out: Agonism μ Emax (%)
T1 sequence (P35372 whole entry): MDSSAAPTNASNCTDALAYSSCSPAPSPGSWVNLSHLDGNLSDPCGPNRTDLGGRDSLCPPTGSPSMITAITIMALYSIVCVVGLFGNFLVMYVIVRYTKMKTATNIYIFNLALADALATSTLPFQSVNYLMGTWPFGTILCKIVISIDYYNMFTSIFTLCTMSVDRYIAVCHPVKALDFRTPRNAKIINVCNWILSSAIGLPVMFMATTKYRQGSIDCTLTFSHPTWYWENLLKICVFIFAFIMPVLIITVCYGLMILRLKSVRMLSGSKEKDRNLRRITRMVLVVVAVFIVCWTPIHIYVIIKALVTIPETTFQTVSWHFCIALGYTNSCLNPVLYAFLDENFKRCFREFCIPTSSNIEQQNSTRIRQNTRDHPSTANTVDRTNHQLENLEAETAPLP

[2] = target: T2, human δ opioid receptor (Homo sapiens, UniProt P41143); assay: Stimulation of [35S]GTPγS binding, δ; type: biochemical; details: for Emax: read-out: Agonism δ Emax (%)
T2 sequence (P41143 whole entry): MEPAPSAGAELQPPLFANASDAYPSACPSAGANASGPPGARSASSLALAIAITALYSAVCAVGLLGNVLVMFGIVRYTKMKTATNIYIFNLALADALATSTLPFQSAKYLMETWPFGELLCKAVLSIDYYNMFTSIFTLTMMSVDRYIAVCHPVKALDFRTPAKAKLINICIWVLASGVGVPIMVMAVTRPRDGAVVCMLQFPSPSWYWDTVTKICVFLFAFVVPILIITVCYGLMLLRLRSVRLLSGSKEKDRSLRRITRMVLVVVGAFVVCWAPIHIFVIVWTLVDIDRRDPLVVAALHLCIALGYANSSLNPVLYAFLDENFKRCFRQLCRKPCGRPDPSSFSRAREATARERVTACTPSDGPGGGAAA

[3] = target: T1, human μ opioid receptor; assay: Inhibition of DAMGO-stimulated [35S]GTPγS binding, μ; type: biochemical; details: for Antagonism μ Imax (%): in presence of 200 nM DAMGO, NI = No inhibition
[4] = target: T2, human δ opioid receptor; assay: Inhibition of SNC 80-stimulated [35S]GTPγS binding, δ; type: biochemical; details: in presence of 10 nM SNC 80; NI = No inhibition
[5] = test system: GPI; details: read-out: GPI EC50; cited from earlier work
[6] = test system: MVD; details: read-out: MVD EC50; cited from earlier work

Cc1cc(O)cc(C)c1C[C@H](N)C(=O)N1Cc2ccccc2C[C@@H]1C(=O)NCC(=O)NCc1ccccc1 [Compound 2, TFA·H-Dmt-D-Tic-Gly-NH-Bzl] (H-[Dmt]-[dTic]-Gly-NHBn)
EC50 [1]: 0.9 ± 0.032 nM | Emax [1]: 92 ± 4% | EC50 [2]: 2.8 ± 0.6 nM | Emax [2]: 44 ± 6.1%

Cc1cc(O)cc(C)c1C[C@H](N)C(=O)N1Cc2ccccc2C[C@H]1C(=O)NCC(=O)NCc1ccc(Cl)cc1 [Compound 3, TFA·H-Dmt-Tic-Gly-NH-Bzl(pCl)]
EC50 [1]: 33 ± 2.9 nM | Emax [1]: 52 ± 5.5% | Emax [2]: 4.5 ± 0.85% | Antagonism μ Imax (%) [3]: 43±3.3% | Antagonism δ Imax (%) [4]: 93±2.2%

Cc1ccc(CNC(=O)CNC(=O)[C@@H]2Cc3ccccc3CN2C(=O)[C@@H](N)Cc2c(C)cc(O)cc2C)cc1 [Compound 4, TFA·H-Dmt-Tic-Gly-NH-Bzl(pMe)]
EC50 [1]: 63 ± 3.5 nM | Emax [1]: 34 ± 6.4% | Emax [2]: 0.4 ± 1.43% | inhibition at 25 µM ([3]; read-out: Antagonism μ inhibition of DAMGO-stimulated [35S]GTPγS binding (%)): 65 ± 1.1% | Antagonism δ Imax (%) [4]: 86±5.0%

Cc1cc(O)cc(C)c1C[C@H](N)C(=O)N1Cc2ccccc2C[C@H]1C(=O)NCC(=O)NCc1ccc([N+](=O)[O-])cc1 [Compound 5, TFA·H-Dmt-Tic-Gly-NH-Bzl(pNO2)]
EC50 [1]: 61 ± 15 nM | Emax [1]: 16 ± 2.5% | Emax [2]: 3.1 ± 0.43% | Antagonism μ Imax (%) [3]: 74±6.9% | Antagonism δ Imax (%) [4]: 79±3.8%

Cc1cc(O)cc(C)c1C[C@H](N)C(=O)N1Cc2ccccc2C[C@H]1C(=O)NCC(=O)NCc1ccc(N)cc1 [Compound 6, 2TFA·H-Dmt-Tic-Gly-NH-Bzl(pNH2)]
Emax [2]: 13 ± 1% | Antagonism δ Imax (%) [4]: 78±2.7%

Cc1cc(O)cc(C)c1C[C@H](N)C(=O)N1Cc2ccccc2C[C@H]1C(=O)NCC(=O)NC(c1ccccc1)c1ccccc1 [Compound 7, TFA·H-Dmt-Tic-Gly-NH-Benzhydryl]
EC50 [1]: 4.8 ± 0.16 nM | Emax [1]: 45 ± 1.2% | Emax [2]: -1.9 ± 0.17% | Antagonism δ Imax (%) [4]: 100±7.4%

Cc1cc(O)cc(C)c1C[C@H](N)C(=O)N1Cc2ccccc2C[C@H]1C(=O)NCC(=O)N1CCc2ccccc2C1 [Compound 8, TFA·H-Dmt-Tic-Gly-1,2,3,4-tetrahydroisoquinoline]
Emax [1]: 43 ± 6.6% | Emax [2]: -1.4 ± 0.14% | Antagonism δ Imax (%) [4]: 99±3.3%

H-Dmt-Tic-Gly-Ph
EC50 [5]: 2.57 nM | EC50 [6]: 3.02 nM
